Assays:
[1] = tested on: Ba/F3 tumors containing G2032R mutant Ros1; experiment: Efficacy study in mice bearing Ba/F3-Ros1 tumors, G2032R mutant Ros1; type: in vivo, NMRI nude mice; conditions: oral gavage, 10 days
Procedure: Efficacy Studies in Mice Bearing Ba/F3-Ros1 Tumors
Approximately 2×10^6 Ba/F3 cells containing either wild-type, L2026M or G2032R mutant Ros1 were inoculated into the inguinal region of NMRI nude mice. When the resulting tumors reached a size of 250 to 350 mm^3, mice were randomly assigned to the different treatment groups (8 to 12 mice per group). Compounds formulated in 20% cyclodextrin were administered to the mice by oral gavage at various doses for 10-days once (QD) or twice (BID) a day. Tumor sizes were determined by caliper measurement on day 1 prior to treatment and then twice weekly for the duration of the study using the commonly following formula: tumor volume (mm^3)=(a×b^2/2); where ‘a’ represents the length, and ‘b’ the width of the tumor. Treatment/control (T/C) ratios were calculated at the end of the study based on the change in final relative tumor volumes.

[2] = tested on: Ros pY2274 in HCC78 cells; experiment: pROS1 immunofluorescence assay in HCC78 cells; type: cell-based; conditions: Homo sapiens, HCC78, 4 h, read-out: HCC78-pRos1 pIC50 (converted)
In short: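 HCC78 NSCLC cells treated with compound for 4 h at 37 °C, then fixed and immunostained for ROS1 pY2274 (Alexa Fluor 680, read at 700 nm). Total ROS1 stained in parallel (IRDye800cw, 800 nm) and used to normalize phospho signal.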

[3] = molecular target: Ba/F3 cells containing Ros1 with a mutation at the gatekeeper residue (L2026M) (Homo sapiens, UniProt P08922, L2026M, cells depend on it, form not given); experiment: Ba/F3-Ros1 cell proliferation assay, L2026M gatekeeper mutant; type: cell-based, murine; conditions: without IL-3
Ba/F3 cells containing Ros1 with a mutation at the gatekeeper residue (L2026M), sequence (P08922 whole entry L2026M, form open): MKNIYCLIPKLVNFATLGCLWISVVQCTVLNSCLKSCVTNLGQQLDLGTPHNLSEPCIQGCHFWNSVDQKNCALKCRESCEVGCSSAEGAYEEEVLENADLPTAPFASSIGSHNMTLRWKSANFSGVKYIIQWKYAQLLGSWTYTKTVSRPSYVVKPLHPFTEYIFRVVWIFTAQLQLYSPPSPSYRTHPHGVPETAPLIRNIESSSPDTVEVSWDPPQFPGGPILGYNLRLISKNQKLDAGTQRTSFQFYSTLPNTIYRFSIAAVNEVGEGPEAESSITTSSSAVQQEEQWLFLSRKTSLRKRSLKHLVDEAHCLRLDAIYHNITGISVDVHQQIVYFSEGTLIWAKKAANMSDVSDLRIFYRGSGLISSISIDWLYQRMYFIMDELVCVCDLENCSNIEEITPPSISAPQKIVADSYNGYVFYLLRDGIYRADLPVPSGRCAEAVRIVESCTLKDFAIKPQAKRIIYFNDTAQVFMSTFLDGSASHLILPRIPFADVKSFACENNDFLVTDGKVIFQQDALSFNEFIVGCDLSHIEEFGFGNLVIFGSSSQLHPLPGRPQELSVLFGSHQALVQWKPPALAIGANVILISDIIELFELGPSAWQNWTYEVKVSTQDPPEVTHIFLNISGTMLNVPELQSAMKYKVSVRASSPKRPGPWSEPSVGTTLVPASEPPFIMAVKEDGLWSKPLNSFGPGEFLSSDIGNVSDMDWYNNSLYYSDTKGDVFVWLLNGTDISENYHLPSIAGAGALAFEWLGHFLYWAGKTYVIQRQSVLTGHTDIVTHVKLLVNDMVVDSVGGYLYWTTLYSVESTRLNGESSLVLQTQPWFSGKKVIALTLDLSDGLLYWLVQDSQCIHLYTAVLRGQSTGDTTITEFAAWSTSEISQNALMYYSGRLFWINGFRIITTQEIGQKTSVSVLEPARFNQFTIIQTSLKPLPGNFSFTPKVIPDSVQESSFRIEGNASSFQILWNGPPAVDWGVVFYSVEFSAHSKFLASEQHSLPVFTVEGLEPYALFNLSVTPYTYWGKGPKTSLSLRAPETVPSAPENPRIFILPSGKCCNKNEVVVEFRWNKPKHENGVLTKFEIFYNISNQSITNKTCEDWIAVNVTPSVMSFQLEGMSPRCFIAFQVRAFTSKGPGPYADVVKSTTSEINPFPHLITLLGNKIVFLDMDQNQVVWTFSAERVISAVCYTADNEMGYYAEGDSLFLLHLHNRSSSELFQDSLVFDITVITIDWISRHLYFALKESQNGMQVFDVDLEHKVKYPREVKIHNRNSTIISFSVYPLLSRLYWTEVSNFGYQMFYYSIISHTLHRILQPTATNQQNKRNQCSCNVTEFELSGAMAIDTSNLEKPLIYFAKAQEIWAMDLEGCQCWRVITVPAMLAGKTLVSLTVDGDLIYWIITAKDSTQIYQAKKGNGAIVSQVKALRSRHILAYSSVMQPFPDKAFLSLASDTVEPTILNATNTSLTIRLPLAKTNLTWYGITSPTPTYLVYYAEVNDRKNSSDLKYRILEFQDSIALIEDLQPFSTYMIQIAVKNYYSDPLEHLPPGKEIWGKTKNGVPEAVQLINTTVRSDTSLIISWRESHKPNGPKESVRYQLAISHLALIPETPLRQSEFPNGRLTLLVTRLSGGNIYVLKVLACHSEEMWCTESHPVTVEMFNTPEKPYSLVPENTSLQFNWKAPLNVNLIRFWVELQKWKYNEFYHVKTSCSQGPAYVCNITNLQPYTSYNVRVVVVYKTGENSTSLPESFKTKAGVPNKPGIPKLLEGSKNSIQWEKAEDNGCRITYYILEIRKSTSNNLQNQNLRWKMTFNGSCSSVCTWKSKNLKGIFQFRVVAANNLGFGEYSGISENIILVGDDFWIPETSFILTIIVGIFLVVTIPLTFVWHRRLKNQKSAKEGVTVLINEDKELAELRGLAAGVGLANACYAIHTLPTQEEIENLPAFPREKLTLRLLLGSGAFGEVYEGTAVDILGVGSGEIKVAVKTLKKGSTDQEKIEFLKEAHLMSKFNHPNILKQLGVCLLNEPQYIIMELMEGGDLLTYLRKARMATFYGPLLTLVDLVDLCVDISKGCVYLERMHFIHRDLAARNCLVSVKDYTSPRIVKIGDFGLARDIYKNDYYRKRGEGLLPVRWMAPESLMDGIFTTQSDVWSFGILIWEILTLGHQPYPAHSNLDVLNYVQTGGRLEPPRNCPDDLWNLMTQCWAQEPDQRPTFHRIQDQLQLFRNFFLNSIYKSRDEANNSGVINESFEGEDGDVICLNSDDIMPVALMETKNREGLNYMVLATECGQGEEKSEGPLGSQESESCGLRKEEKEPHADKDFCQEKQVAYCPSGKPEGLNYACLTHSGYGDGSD
In short: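 20000 Ba/F3-Ros1 cells/well (WT, L2026M, G2032R), RPMI-1640 phenol red free + 10% FBS + 2 mM Gln, cpds from DMSO; 24 h, 37 °C, 5% CO2. Alamar Blue 4 h, RFU ex540/em590.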

## CC(C)c1ccc(COc2ccc(-c3c(-c4ccncc4)nn4c3C(=O)NCC4)cc2)cc1 [Compound 1]
[1]; 6.25 mg/kg BID
  T/C (%): 79%
[1]; 12.5 mg/kg BID
  T/C (%): 43%
[1]; 25 mg/kg BID
  T/C (%): 7%
[2]
  IC50: 25.1 nM
[3]
  Ba/F3 Ros1 L2026M (-IL-3) pIC50: 7.3

## CC(C)c1ccc(COc2ccc(-c3c(-c4ccncc4)nn4c3C(=O)N(CCO)CC4)cc2)cc1 [Compound 2]
[1]; 12.5 mg/kg BID
  T/C (%): 89%
[1]; 25 mg/kg BID
  T/C (%): 55%
[1]; 50 mg/kg BID
  T/C (%): 18%
[1]; 100 mg/kg BID
  T/C (%): −16%
[2]
  IC50: 25.1 nM
[3]
  Ba/F3 Ros1 L2026M (-IL-3) pIC50: 7.4
other
  melting point: 181 °C

From patent publication US10280170B2, “Substituted 4,5,6,7-tetrahydro-pyrazolo[1,5-a]pyrazine derivatives and 5,6,7,8-tetrahydro-4H-pyrazolo[1,5-a][1,4]diazepine derivatives as Ros1 inhibitors” (Janssen Pharmaceutica NV, priority 2014, dated 2019)
